Drawing on PubChem BioAssay AID489041 (Sanford-Burnham Center for Chemical Genomics, 2010), this text covers IC50 for 91 compounds.

Molecules are shown by their SMILES. Activity calls are given as the source filed them. No rule for the calls is given here.

The test system of the test is HEK-293T NF-kB luciferase reporter counterscreen, luminescence. Kind of test: inhibitors of HEK-293T NF-kB luciferase – HEK-293T cells, luminescence, counter-screen for T-cell antigen receptor NF-kB inhibitors, dose response (AID 489041). (Counterscreens check selectivity or assay interference.)
Turning to `CCn1cc(C(=O)NC2CCCc3c2cnn3-c2cccc(C)c2C)cn1` (stereo unspecified), the IC50 was 14.7 µM.
As to `N=c1ccn(CC(=O)c2ccc(-c3ccccc3)cc2)cc1`, the IC50 is 5.16 µM.
Turning to `CCN1/C(=C/c2ccc3cc(C)ccc3[n+]2CC)Sc2ccc3sccc3c21`, the IC50 is 63 µM (inactive).
As to `O=C(Nc1ccc(N2CCN(C(=O)c3ccc(Cl)cc3)CC2)cc1)c1ccc2c(c1)OCCO2`, the IC50 is 3.1 µM.
In the case of `CCN(c1ccccc1)S(=O)(=O)c1ccc(C(=O)NC2CCN(Cc3ccccc3)CC2)cc1`, the IC50 is 3.14 µM.
As to `COc1ccc(NS(=O)(=O)c2ccc(-c3cnc(C4CC4)o3)cc2)cc1OC`, the IC50 is 1 µM.
As for `O=C(NCCOc1ccccc1)c1cc([N+](=O)[O-])ccc1N1CCOCC1`, the IC50 was 72.2 µM (inactive).
As to `O=C1C=CCC(/C=C/c2ccccc2)O1` (stereo unspecified), the IC50 is 22.2 µM (inactive).
Turning to `Cc1cc(C)cc(NS(=O)(=O)c2ccc(-c3cnc(C4CC4)o3)cc2)c1`, the half-inhibitory concentration (IC50) is 1.8 µM.
On to `Cc1cnc(NC(=O)c2ccc3c(c2)OCCO3)s1`, for which the IC50 is 3.78 µM.
Take `C=C(C)C(=O)O[C@H]1C/C(C)=C\C(=O)/C=C(\C)[C@H](O)[C@@H]2OC(=O)C(=C)[C@@H]21`: the concentration for half-maximal inhibition (IC50) is 19.7 µM.
For `COc1ccc(NC(=O)/C(Cl)=C(/Cl)S(=O)Cc2ccc(C)cc2)cn1` (stereo unspecified) the value was 5.5 µM.
As to `C=C1C(O)[C@@H]2O[C@]3(CC[C@H](/C=C/C(C)[C@@H]4CC(C)=CC5(O[C@H](C[C@@](C)(O)CO)CCC5O)O4)O3)CC[C@H]2O[C@@H]1C(O)CC(C)[C@H]1OC2(CCCCO2)CCC1C` (stereo partly specified), the IC50 is less than 0.16 µM.
Turning to `COc1ccc(CS(=O)/C(Cl)=C(/Cl)C(=O)Nc2ccc(OC)nc2)cc1` (stereo unspecified), the half-inhibitory concentration (IC50) is 4.31 µM.
With `O=C(Nc1ccc(CSc2ccccc2)cc1)c1ccc(CN2CCOCC2)cc1`, the half-maximal inhibitory concentration (IC50) is 0.34 µM.
For `Cc1ccc(COC(=O)c2cc([N+](=O)[O-])ccc2N2CCOCC2)cc1` the value was 3.3 µM.
In the case of `CCc1c(C)nc2ncnn2c1NCCc1ccc(OC)cc1`, the IC50 was 3.03 µM.
As for `CCCC(=O)NC(c1ccc(C)cc1)c1ccc2cccnc2c1O` (stereo unspecified), the IC50 is 0.43 µM.
With `Cc1c(C)c2cccnc2c2ncccc12`, the IC50 was 23.1 µM (inactive).
For `COC(=O)Cc1[nH]n(-c2nc3ccccc3s2)c(=O)c1C(C)=Nc1ccc(OC)cc1`, the half-inhibitory concentration (IC50) was less than 0.16 µM.
`CCN1/C(=C/C(C)=C/c2sc3ccccc3[n+]2CC)Sc2ccccc21`: the IC50 was 0.78 µM.
Turning to `COc1ccc(Nc2ncnc3ccc(Br)cc23)c(OC)c1`, the IC50 is 12 µM.
For `c1ccc2c(c1)CCN(c1ncnc3c1[nH]c1ccccc13)C2` the value was 1.43 µM; for `O=C(Sc1cccc2cccnc12)c1ccc(F)cc1`, 34.2 µM (inactive); for `CCCOC(=O)c1[nH]c2c(c1C)C(=O)CC(c1cccs1)C2` (stereo unspecified), 15.2 µM.
`CCOCCCNC(=O)c1ccc2c(c1)N=C(CC)c1cc(Br)ccc1S2`: the IC50 is 1.46 µM.
As for `O=C1c2c(O)ccc(O)c2C(=O)c2c(NCCNCCO)ccc(NCCNCCO)c21`, the 50% inhibitory concentration (IC50) is 10.7 µM.
Turning to `CCCC(=O)Nc1nc2ccc(NC(=O)c3c(F)c(F)c(OC)c(F)c3F)cc2s1`, the IC50 was > 80 µM (inactive).
For `Cc1ccc(C)c(CSc2nc3[nH]ncc3c(=O)[nH]2)c1` the value was 4.88 µM; for `CC(=O)Nc1ccc(S(=O)(=O)N2CCCc3ccccc32)cc1`, 26.6 µM (inactive); for `O=C(c1ccccc1)c1nn(-c2ccc(Cl)cc2)c(=O)cc1C(F)(F)F`, 5 µM.
In the case of `O=C(Nc1ccc(S(=O)(=O)N2CCCCC2)cc1)c1ccc(CN2CCOCC2)cc1`, the IC50 was 3.95 µM.
`COc1cc(OC)c(/C=C2\C(=O)Nc3ccccc32)c(OC)c1`: the IC50 was 6.26 µM.
With `CC(Oc1ccc(Cl)cc1Cl)C(=O)Nc1ccncc1` (stereo unspecified), the half-inhibitory concentration (IC50) is 6.73 µM.
As for `CCOCCCNC(=O)c1cc2c(=O)n3cccc(C)c3nc2n1C`, the IC50 was > 80 µM (inactive).
For `COC(=O)c1[nH]c2ccc(Br)cc2c1NC(=O)CN1CCN(C2CCCCC2)CC1` the value was 13.4 µM; for `O=S1(=O)C=C(Sc2nc3cc(Cl)ccc3o2)c2ccccc21`, 20.8 µM (inactive).
Take `CC1(C)Cc2c(sc(NC(=O)COc3cccc4ccccc34)c2C#N)C(C)(C)N1`: the IC50 is > 80 µM (inactive).
For `Cc1ccc(C(=O)Nc2ncc(Cc3ccc(SC(F)F)cc3)s2)cc1` the value was > 80 µM (inactive); for `COc1ccc(Nc2cc(C)nc(-n3nc(C)cc3C)n2)cc1`, 6.55 µM; for `COc1ccccc1N1CCN(C(=O)c2cc(=O)c3cc(C)cc(C)c3o2)CC1`, 76 µM (inactive).
In the case of `COc1ccc(-[n+]2c(-c3ccccc3)cc(-c3ccc(C)cc3)cc2-c2ccccc2)cc1`, the IC50 was 3.61 µM.
Take `C=C(C)COc1ccc(-c2[nH]ncc2-c2ccc(OC)c(OC)c2)c(O)c1`: the IC50 is 5.03 µM.
As to `C/C=C/COC(=O)c1[nH]c2c(c1C)C(=O)CC(c1ccco1)C2` (stereo unspecified), the IC50 was 0.34 µM.
Turning to `COc1ccc(CC(=O)Nc2cccc(-c3nnc(-c4cccc(C)c4)o3)c2)cc1OC`, the IC50 was 1.24 µM.
Take `CCCCc1ccc(NC(=O)c2ccc(N(C)S(C)(=O)=O)cc2)cc1`: the IC50 was > 80 µM (inactive).
In the case of `COc1cc(NCCCCCCCN)c2ncccc2c1`, the IC50 was 11.8 µM.
Regarding `COc1cc(C(=O)N2CCN(c3cc(Cl)ccc3Cl)CC2)cc(OC)c1OC`, the IC50 is 3.01 µM.
As to `CC(=O)O[C@H]1C(=O)[C@@]2(C)C([C@H](OC(=O)c3ccccc3)[C@]3(O)C[C@H](OC(=O)[C@H](O)[C@@H](NC(=O)c4ccccc4)c4ccccc4)C(C)=C1C3(C)C)[C@]1(OC(C)=O)CO[C@@H]1C[C@H]2O` (stereo partly specified), the IC50 was > 80 µM (inactive).
The figure for `CC(Oc1ccc(Cl)cc1Cl)c1nc(-c2ccc(NC(=O)c3ccncc3)cc2)no1` (stereo unspecified) is 2.39 µM; for `O=S1(=O)Nc2c(ccc3cccnc23)-c2ccccc21` it is 0.28 µM.
For `COc1ccccc1-c1nnc2sc(-c3ccc(N(C)C)cc3)nn12`, the IC50 was 2.32 µM.
For the compound `COC(=O)c1cnc(Oc2ccc(NC(=O)NC(=O)c3c(F)cccc3Cl)cc2)cc1C(F)(F)F`, the IC50 is 25.8 µM (inactive).
On to `CCCCCCCCCn1c2c(c(=N)c3c1CCC3)CCC2`, for which the IC50 is 0.98 µM.
Turning to `Cc1cccc(N2CCN(C(=O)c3c(-c4ccccc4Cl)noc3C)CC2)c1C`, the IC50 was 6.03 µM.
For the compound `CCOc1ccc(Br)cc1C1=CC(=O)C[C@H](c2ccc(OC)cc2)C1`, the IC50 is 13.7 µM.
As to `Cc1ccc(/C=N/NC(=O)C2COc3ccccc3O2)s1` (stereo unspecified), the IC50 was 51.6 µM (inactive).
The figure for `COC(=O)[C@]12OC[C@]34C([C@@H](O)[C@@H]1O)[C@]1(C)CC(=O)C(O)=C(C)[C@@H]1C[C@H]3OC(=O)[C@H](O)[C@@H]24` (stereo partly specified) is 0.548 µM; for `COc1ccc(C2=Nn3c([n+](C)c4ccccc43)SC2)cc1` it is 2.63 µM.
With `Cn1ncnc2c(=O)n(C)c(=O)nc1-2`, the IC50 is 1.11 µM.
Turning to `O=S(=O)(c1ccc2c(c1)OCCO2)N1CCN(c2ncnc3sccc23)CC1`, the IC50 is 2.44 µM.
As to `c1ccc(-c2cccc(-c3ccccn3)n2)nc1`, the IC50 was > 80 µM (inactive).
Turning to `CNC[C@@H](CC1CCCCC1)NC[C@H](CC(C)C)NCCc1cccc(C(F)(F)F)c1`, the IC50 is 12.8 µM.
With `Cc1ccc(S(=O)(=O)Cc2ccc(C(=O)N3CCN(c4cccc(C)c4C)CC3)o2)cc1`, the IC50 is 3.22 µM.
For `Cn1nc(CC(=O)Nc2ccc(N3CCN(C(=O)OC(C)(C)C)CC3)cc2)c2ccccc2c1=O` the value was 0.76 µM; for `COc1ccccc1N1CCN(C(=O)c2ccc(-c3ccc(Cl)cc3)o2)CC1`, 10.1 µM; for `Cc1ccc2c(c1)COc1c3ccc(C(=O)O)cc3nn1-2`, 12.9 µM.
As for `O=S1(=O)C=C(Sc2nc3ccccc3s2)c2ccccc21`, the IC50 was 5.57 µM.
On to `CCCCn1c2c(c(=N)c3c1CCC3)CCC2`, for which the IC50 was 8.5 µM.
For the compound `Cc1ccc(O)c(NC(=O)CCC2CCCCC2)c1`, the IC50 is > 80 µM (inactive).
With `Cn1c2c(c(=O)n(C)c1=O)C(C(F)(F)F)(C(F)(F)F)N=C(c1ccc(Cl)cc1)N2`, the IC50 is 1.62 µM.
The figure for `Cc1ccc(-c2nc(-c3ccccn3)no2)cc1` is 3.83 µM; for `CSc1nccc(-c2nn(-c3ccc(C)cc3)ccc2=O)n1` it is 6.22 µM; for `Cc1ccc(S(=O)(=O)NCc2ccncc2)c(C)c1C` it is 0.3 µM.
For `COc1ccc([C@H]2CC(=O)C=C(c3c(OC)cccc3OC)C2)cc1`, the half-inhibitory concentration (IC50) is 10.2 µM.
With `CCOC(=O)c1[nH]c(C=O)c(C(=O)OCC)c1C`, the half-maximal inhibitory concentration (IC50) is 15.5 µM.
For `Cc1cc(NC(=O)CSc2nc3ccccc3c(=O)n2C2CCCC2)no1` the value was 19.1 µM.
With `Cn1ncc2c(N3CCN(c4ccc(Cl)c(Cl)c4)CC3)ncnc21`, the IC50 is 1.29 µM.
For `O=C1CC(c2cc(F)ccc2F)c2cc3c(cc2N1)CCC3` (stereo unspecified) the value was 4.69 µM.
For the compound `C/C=C(\C)C(=O)N[C@@H](c1ccccc1)[C@@H](O)C(=O)O[C@H]1C[C@@]2(O)[C@@H](OC(=O)c3ccccc3)C3[C@](C)(C(=O)[C@H](OC(C)=O)C(=C1C)C2(C)C)[C@@H](O)C[C@H]1OC[C@@]31OC(C)=O` (stereo partly specified), the IC50 is > 80 µM (inactive).
The figure for `COc1cc(C(=O)N2CCN(c3cccc(C)c3C)CC2)cc(OC)c1OC` is 12.5 µM; for `CC1CCCN(c2ncnc3c2cnn3-c2ccc(Cl)cc2)C1` (stereo unspecified) it is 8.88 µM; for `CCCCCN1C=CC(=C2C(=O)c3ccccc3C2=O)C=C1` it is 1.9 µM.
For `COc1ccc(NC(=O)Cn2nnc(-c3ccccc3NS(=O)(=O)c3ccc(OC)cc3)n2)cc1` the value was 13.6 µM; for `CC1Cc2cc(-c3csc(NC(=O)Cc4cccs4)n3)ccc2N1S(C)(=O)=O` (stereo unspecified), 2 µM.
Consider `Nc1ncn([C@@H]2O[C@H](CO)[C@@H](O)[C@H]2O)c(=O)n1`, for which the 50% inhibitory concentration (IC50) is 4.76 µM.
For the compound `CCC/C(O)=C1\C(=O)CC(C)(C)CC1=Nc1ccc(OC)cc1OC`, the IC50 is 18.4 µM.
For `COc1ccc(Nc2nc3cc(C)ccc3cc2C#N)c(OC)c1` the value was > 80 µM (inactive); for `Cc1ccc(C(=O)Nc2cccc(C(=O)O)c2)cc1`, 4.1 µM.
In the case of `CCCCC(=O)NC(c1ccc(Cl)cc1Cl)c1ccc2cccnc2c1O` (stereo unspecified), the IC50 was > 80 µM (inactive).
For `COc1ccc(-n2cc(-c3ccc(C)cc3)[n+]3c2SCC3)cc1` the value was 5.82 µM.

A word on the IC50: it is the concentration that gives 50% inhibition.
